Data taken from the supplement of paper PMC13380429.

Experiments:
Conditions in all cases: 72 h
U2OS [1] = assay: cell viability relative to DMSO; higher = less toxic
Caco-2 [2] = assay: as above
HepG2 [3] = assay: as above
Calu-3 [4] = assay: as above
Vero E6 [5] = assay: as above
U2OS [6] = assay: drug sensitivity score (DSS) for viability; higher = more toxic; extreme values may be limits of the assay
Caco-2 [7] = assay: as above
HepG2 [8] = assay: as above
Calu-3 [9] = assay: as above
Vero E6 [10] = assay: as above
U2OS [11] = assay: relative viability EC50 (midpoint between 100% and the lowest measured viability); higher = less toxic
Caco-2 [12] = assay: as above
HepG2 [13] = assay: as above
Calu-3 [14] = assay: as above
Vero E6 [15] = assay: as above

Row | SMILES | cell viability (U2OS [1]; 1 nM) | cell viability (U2OS [1]; 10 nM) | cell viability (U2OS [1]; 100 nM) | cell viability (U2OS [1]; 1000 nM) | cell viability (U2OS [1]; 10000 nM) | cell viability (Caco-2 [2]; 1 nM) | cell viability (Caco-2 [2]; 10 nM) | cell viability (Caco-2 [2]; 100 nM) | cell viability (Caco-2 [2]; 1000 nM) | cell viability (Caco-2 [2]; 10000 nM) | cell viability (HepG2 [3]; 1 nM) | cell viability (HepG2 [3]; 10 nM) | cell viability (HepG2 [3]; 100 nM) | cell viability (HepG2 [3]; 1000 nM) | cell viability (HepG2 [3]; 10000 nM) | cell viability (Calu-3 [4]; 1 nM) | cell viability (Calu-3 [4]; 10 nM) | cell viability (Calu-3 [4]; 100 nM) | cell viability (Calu-3 [4]; 1000 nM) | cell viability (Calu-3 [4]; 10000 nM) | cell viability (Vero E6 [5]; 1 nM) | cell viability (Vero E6 [5]; 10 nM) | cell viability (Vero E6 [5]; 100 nM) | cell viability (Vero E6 [5]; 1000 nM) | cell viability (Vero E6 [5]; 10000 nM) | drug sensitivity score (U2OS [6]) | drug sensitivity score (Caco-2 [7]) | drug sensitivity score (HepG2 [8]) | drug sensitivity score (Calu-3 [9]) | drug sensitivity score (Vero E6 [10]) | relative viability EC50 (U2OS [11]) | relative viability EC50 (Caco-2 [12]) | relative viability EC50 (HepG2 [13]) | relative viability EC50 (Calu-3 [14]) | relative viability EC50 (Vero E6 [15])
1 | CCCN(CCC)C(=O)C1=Cc2ccc(-c3ccc(C(=O)N4CCCC4)cc3)cc2N=C(N)C1 [motolimod] | 106% | 101% | 99.6% | 98.1% | 92% | 102% | 106% | 124% | 109% | 100% | 107% | 113% | 89.7% | 114% | 40.6% | 121% | 103% | 112% | 112% | 98.1% | 102% | 102% | 98.1% | 99.2% | 91.6% | 0 | 0 | 2.5 | 0 | 0 | > 10 µM | > 10 µM | 4 µM | > 10 µM | > 10 µM
2 | CN1C(=O)N(c2cc(Cl)cc(Cl)c2)C(=O)[C@@]1(C)Cc1ccc(Br)cc1 [BIRT-377] | 98.1% | 100% | 95.2% | 99.2% | 88.8% | 101% | 98% | 97.9% | 102% | 83.4% | 105% | 101% | 104% | 86.6% | 103% | 98.4% | 92.8% | 91.1% | 105% | 92.7% | 98.7% | 96.8% | 104% | 95.3% | 101% | 0 | 0.3 | 0 | 0 | 0 | > 10 µM | > 10 µM | > 10 µM | > 10 µM | > 10 µM
3 | CC(=O)c1ccc2c(c1)[C@H](NC(=O)c1ccc(F)c(Cl)c1)[C@H](O)C(C)(C)O2 [tonabersat] | 100% | 105% | 92.1% | 101% | 101% | 88.2% | 123% | 81.3% | 107% | 86.6% | 95% | 95.3% | 126% | 97.9% | 90.2% | 95.4% | 100% | 99% | 106% | 111% | 109% | 110% | 103% | 100% | 98.6% | 0 | 0 | 0 | 0 | 0 | > 10 µM | > 10 µM | > 10 µM | > 10 µM | > 10 µM
4 | CC(C)(CCCCCC(O)CCCCCC(C)(C)C(=O)O)C(=O)O [bempedoic-acid] | 97.6% | 97.2% | 97.7% | 100% | 100% | 98.5% | 95.6% | 96.8% | 96.1% | 95% | 102% | 98.2% | 107% | 98.2% | 102% | 90.2% | 92.3% | 87.2% | 92.1% | 92.6% | 106% | 104% | 98% | 100% | 98% | 0 | 0 | 0 | 0 | 0 | > 10 µM | > 10 µM | > 10 µM | > 10 µM | > 10 µM
5 | CC(C)(Oc1ccc(CCNC(=O)c2ccc(Cl)cc2)cc1)C(=O)O [bezafibrate] | 102% | 97% | 96.2% | 94% | 98.3% | 102% | 95.7% | 96.8% | 98% | 94.3% | 98.1% | 93.1% | 91.5% | 97.4% | 102% | 110% | 98.5% | 108% | 97% | 98.4% | 106% | 105% | 101% | 104% | 93.4% | 0 | 0 | 0 | 0 | 0 | > 10 µM | > 10 µM | > 10 µM | > 10 µM | > 10 µM
6 | COc1cc(-c2ccc(=O)[nH]n2)ccc1OC(F)F [zardaverine] | 97.8% | 95.8% | 103% | 98% | 99.2% | 87.1% | 90% | 96.9% | 96.3% | 104% | 93.8% | 110% | 95.7% | 106% | 99.7% | 108% | 95.9% | 89.5% | 92.4% | 89.4% | 95.5% | 101% | 94.5% | 93% | 92.6% | 0 | 0 | 0 | 0.3 | 0 | > 10 µM | > 10 µM | > 10 µM | > 10 µM | > 10 µM
